Tests used:
[1] = tested on: Klebsiella pneumoniae; assay: microbe, parasite or virus in culture; assay type: cell-based; conditions: control agents of Table 8
[2] = tested on: Pseudomonas aeruginosa; assay: microbe, parasite or virus in culture; assay type: cell-based; conditions: P. aeruginosa (ATCC 27853); control agents of Table 8
[3] = tested on: Escherichia coli; assay: microbe, parasite or virus in culture; assay type: cell-based; conditions: for MIC (in brackets beside MBEC): control agents of Table 8
Procedure, shortened: (§1)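 Read-out is the minimal inhibitory concentration of each peptide, measured in serum-supplemented CAA.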

[4] = tested on: Enterobacter cloacae; assay: microbe, parasite or virus in culture; assay type: cell-based
Procedure, shortened: as §1

[5] = tested on: Acinetobacter baumannii; assay: microbe, parasite or virus in culture; assay type: cell-based
[6] = tested on: LPS; assay: Endotoxin neutralization, limulus amoebocyte lysate (LAL) enzyme assay, LPS binding; assay type: biochemical; conditions: LPS 0.8 EU/mL; for LPS binding: […]-64 μg/mL, 24° C., 1 hour
Experimental: CHEM. […] The standard reference samples contained only LPS dissolved in pyrogen-free water. Solutions were mixed well and incubated at 24° C. for 1 hour, and the manufacturers' test procedure for quantitative detection of endotoxins was followed.

[7] = tested on: eight different strains of five species of Gram-negative bacteria; assay: MBEC in eight strains of five species of Gram-negative bacteria; assay type: cell-based; conditions: 24 h biofilm in LB, 16 h treatment
Experimental: Determination of Minimal Biofilm Eradicating Concentrations (MBEC). […] The OD600 of extracted crystal violet was determined. The MBEC value of each sample was determined as the minimum drug concentration required to remove >95% of biofilm biomass as assessed by crystal violet quantitation (in comparison to untreated controls).
MBEC values were likewise determined for Chp2, Chp2-M1, and Chp10-M1 in eight different strains of five species of Gram-negative bacteria. […] The films were then washed and stained with crystal violet to visualize the MBEC.

[8] = tested on: P. aeruginosa strain PAO1; assay: MIC against PAO1 in Mueller-Hinton broth with 50% human plasma or human serum; assay type: cell-based, Pseudomonas aeruginosa; conditions: PAO1; for Minimal inhibitory concentration, Human Plasma: Mueller-Hinton broth with 50% human plasma; for Minimal inhibitory concentration, Human Serum: Mueller-Hinton broth with human serum
[9] = tested on: carbapenem-resistant P. aeruginosa clinical isolate CFS-1292; assay: MIC by modified CLSI broth microdilution against P. aeruginosa CFS-1292 (CAA, CAA + human serum); assay type: cell-based, Pseudomonas aeruginosa
[10] = tested on: M. smegmatis; assay: 45 hr MIC against M. smegmatis (NTM), Mueller Hinton broth; assay type: cell-based, Mycobacterium smegmatis; conditions: M. smegmatis MC^2 155, Run #1
[11] = tested on: A. baumannii strain BAA-747 persister cells; assay: Activity against persister cells, A. baumannii; assay type: cell-based, Acinetobacter baumannii; conditions: A. baumannii BAA-747 persister cells
[12] = tested on: P. aeruginosa strain PA20 persister cells; assay: Activity against persister cells, P. aeruginosa; assay type: cell-based, Pseudomonas aeruginosa; conditions: P. aeruginosa PA20 persister cells
[13] = tested on: Klebsiella pneumoniae; assay type: cell-based; conditions: Klebsiella pneumoniae HM-44; CAA supplemented with human serum
Experimental: Determination of Minimal Inhibitory Concentrations (MIC).
Additional MIC testing was performed for several peptides against the ESKAPE pathogens Escherichia coli, Enterobacter cloacae, Klebsiella pneumoniae, and Acinetobacter baumannii, in CAA supplemented with human serum (Table D).

[14] = tested on: Stenotrophomonas-containing biofilm on explanted hemodialysis catheters; assay: Antibiofilm activity in explanted hemodialysis catheters; assay type: cell-based, Stenotrophomonas spp.
Experimental: The explanted hemodialysis catheters were cut into equal length segments and bisected to expose the lumen.
The samples were treated for 4 hours at 37° C. before rinsing with Lactated Ringer's solution.
Three additional infected hemodialysis catheter samples were removed from two patients (one catheter from a first patient and two catheters from a second patient). […] The samples were incubated at 37° C. for 4 hours.

[15] = peptide concentration 0.5 μg/mL
[16] = log10 CFU/mL reduction as compared to buffer

LL-37 [reference compound]
MIC (in brackets beside MBEC) ([1]; K. pneumoniae (ATCC 700603)): (16) μg/mL
MIC (in brackets beside MBEC) ([1]; K. pneumoniae (KP1)): (16) μg/mL
MIC (in brackets beside MBEC) [2]: (16) μg/mL
MIC (in brackets beside MBEC) ([3]; E. coli (ATCC 25922)): (16) μg/mL
MIC (in brackets beside MBEC) ([3]; E. coli (ATCC 35329)): (16) μg/mL
MIC (in brackets beside MBEC) ([3]; E. coli (EC2)): (16) μg/mL
MIC (in brackets beside MBEC) ([4]; E. cloacae (CCUG 63317), control agents of Table 8): (16) μg/mL
MIC (in brackets beside MBEC) ([5]; A. baumanni (ATCC BAA-747), control agents of Table 8): (16) μg/mL
LPS binding [6]: dose-dependent increases in LPS binding
% LPS Bound [6, 15]: 90.6%
% LPS Bound ([6]; peptide concentration 1 μg/mL): 92.2%
% LPS Bound ([6]; peptide concentration 2 μg/mL): 92.9%
% LPS Bound ([6]; peptide concentration 4 μg/mL): 92.3%
% LPS Bound ([6]; peptide concentration 8 μg/mL): 92.4%
% LPS Bound ([6]; peptide concentration 16 μg/mL): 92.1%
% LPS Bound ([6]; peptide concentration 32 μg/mL): 87.3%
% LPS Bound ([6]; peptide concentration 64 μg/mL): 75.4%
MBEC ([7]; A. baumanni (ATCC BAA-747)): 0.25 µg/mL
MBEC ([7]; E. cloacae (CCUG 63317)): 8 µg/mL
MBEC ([7]; E. coli (ATCC 25922)): 16 µg/mL
MBEC ([7]; E. coli (ATCC 35329)): 16 µg/mL
MBEC ([7]; E. coli (EC2)): 8 µg/mL
MBEC ([7]; K. pneumoniae (ATCC 700603)): 32 µg/mL
MBEC ([7]; K. pneumoniae (KP1)): 16 µg/mL
MBEC ([7]; P. aeruginosa (ATCC 27853)): 8 µg/mL
Minimal inhibitory concentration, Human Plasma [8]: >64 µg/mL
Minimal inhibitory concentration, Human Serum [8]: >64 µg/mL

MAEQYELSQEQSEQLFSETALQMHEQNELQEIMQGGIEF [Chp5]
MIC ([3]; Escherichia coli ATCC 25922, CAA supplemented with human serum): 4 µg/mL
MIC ([4]; Enterobacter cloacae ATCC 13047, CAA supplemented with human serum): >32 µg/mL
MIC (μg/mL) against CFS-1292 in 100% CAA (1st run/2nd run) ([9]; 100% CAA, 1st run or single value): >32 µg/mL
MIC (μg/mL) against CFS-1292 in CAA + […] human serum ([9]; CAA + […] human serum): >32 µg/mL
MIC ([5]; Acinetobacter baumannii ATCC BAA 747, CAA supplemented with human serum): >32 µg/mL
45 hr MIC [10]: >64 µg/mL
MIC Log10 (CFU/mL) Run #1 ([11]; 1 hour at 37° C., Run #1, limit of detection 1.6-log10 CFU/mL): 4.1 Log10 (CFU/mL)
MIC Log10 (CFU/mL) Run #2 ([11]; 1 hour at 37° C., Run #2, limit of detection 1.6-log10 CFU/mL): 5.1 Log10 (CFU/mL)
MIC Log10 (CFU/mL) Run #3 ([11]; 1 hour at 37° C., Run #3, limit of detection 1.6-log10 CFU/mL): 4.5 Log10 (CFU/mL)
MIC Log10 (CFU/mL) Average ([11]; average of 3 runs): 4.6 Log10 (CFU/mL)
Delta Log [11, 16]: 0.3
Viable persister count after treatment (log10 CFU/mL) ([12]; Run #1, limit of detection 2-log10 CFU/mL): 4.4 Log10 (CFU/mL)
Viable persister count after treatment (log10 CFU/mL) ([12]; Run #2, limit of detection 2-log10 CFU/mL): 4.3 Log10 (CFU/mL)
Viable persister count after treatment (log10 CFU/mL) ([12]; Run #3, limit of detection 2-log10 CFU/mL): 3.1 Log10 (CFU/mL)
Viable persister count after treatment (log10 CFU/mL) ([12]; average of 3 runs): 3.9 Log10 (CFU/mL)
Delta Log [12, 16]: 0.5
LPS binding [6]: does not bind LPS
% LPS Bound [6, 15]: 0.1%
% LPS Bound ([6]; peptide concentration 1 μg/mL): 0.1%
% LPS Bound ([6]; peptide concentration 2 μg/mL): 0.1%
% LPS Bound ([6]; peptide concentration 4 μg/mL): 0.1%
% LPS Bound ([6]; peptide concentration 8 μg/mL): 5.4%
% LPS Bound ([6]; peptide concentration 16 μg/mL): 0.1%
% LPS Bound ([6]; peptide concentration 32 μg/mL): 0.1%
% LPS Bound ([6]; peptide concentration 64 μg/mL): 0.9%
MIC [13]: 8 µg/mL

PGLa
Minimal inhibitory concentration, Human Plasma [8]: >64 µg/mL
Minimal inhibitory concentration, Human Serum [8]: >64 µg/mL

Pediocin (KYYGNGVTCGKHSCSVDWGKATTCIINNGAMAWATGGHQGNHKC; Bacteriocin pediocin PA-1; UniProt P29430 19-62, looked up)
Minimal inhibitory concentration, Human Plasma [8]: >64 µg/mL
Minimal inhibitory concentration, Human Serum [8]: >64 µg/mL

Protegrin 1
Minimal inhibitory concentration, Human Plasma [8]: 1 µg/mL
Minimal inhibitory concentration, Human Serum [8]: 4 µg/mL

daptomycin
eradication of catheter biofilm ([14]; first catheter sample, 4 hours at 37° C., Chp2-M1 10 μg/mL, CF-301 and daptomycin 1 μg/mL): did not
Log10 CFU/g for Catheter Sample #2 enumerated after 24 hours of incubation at 37 °C. ([14]; treatment at 1 μg/mL): 3.72 Log10 CFU/g
Log10 CFU/g for Catheter Sample #3 enumerated after 24 hours of incubation at 37 °C. ([14]; treatment at 1 μg/mL): 4.15 Log10 CFU/g
Log10 CFU/g for Catheter Sample #1 (enumerated after 18 hours of incubation at 37 °C.) ([14]; treatment at 1 μg/mL, 4 hours at 37° C.): 3.66 Log10 CFU/g

Source: US20220401514A1, “ANTIMICROBIAL, BACTERIOPHAGE-DERIVED POLYPEPTIDES AND THEIR USE AGAINST GRAM-NEGATIVE AND ACID-FAST BACTERIA” (CONTRAFECT CORPORATION, priority 2019, published 2022)
